Measurements reported in paper PMC10578352, “Identification of a Protein Arginine Methyltransferase 7 (PRMT7)/Protein Arginine Methyltransferase 9 (PRMT9) Inhibitor” (Journal of Medicinal Chemistry, 2023).
“Also recorded” adds a separate entry of the source.

Assays:
Type in all cases: biochemical
[1] = target: T1, human recombinant PRMT9 (Homo sapiens, UniProt Q6P2P2); experiment: AlphaLISA PRMT9 activity assay (modified BPS kit, biotinylated SF3B2 peptide); details: for PRMT9 IC50 / IC50: PRMT9 0.105 μM, biotinylated SF3B2 (500–519) peptide 100 nM, SAM 25 μM; for PRMT9 inhibition (in words): in-house AlphaLISA assay
T1 construct: human recombinant PRMT9 (2–845; N-terminal FLAG-tag, C-terminal His6-tag); FLAG (N); His6 (C); purchased BPS BioScience 79124
T1 sequence (Q6P2P2 2-845): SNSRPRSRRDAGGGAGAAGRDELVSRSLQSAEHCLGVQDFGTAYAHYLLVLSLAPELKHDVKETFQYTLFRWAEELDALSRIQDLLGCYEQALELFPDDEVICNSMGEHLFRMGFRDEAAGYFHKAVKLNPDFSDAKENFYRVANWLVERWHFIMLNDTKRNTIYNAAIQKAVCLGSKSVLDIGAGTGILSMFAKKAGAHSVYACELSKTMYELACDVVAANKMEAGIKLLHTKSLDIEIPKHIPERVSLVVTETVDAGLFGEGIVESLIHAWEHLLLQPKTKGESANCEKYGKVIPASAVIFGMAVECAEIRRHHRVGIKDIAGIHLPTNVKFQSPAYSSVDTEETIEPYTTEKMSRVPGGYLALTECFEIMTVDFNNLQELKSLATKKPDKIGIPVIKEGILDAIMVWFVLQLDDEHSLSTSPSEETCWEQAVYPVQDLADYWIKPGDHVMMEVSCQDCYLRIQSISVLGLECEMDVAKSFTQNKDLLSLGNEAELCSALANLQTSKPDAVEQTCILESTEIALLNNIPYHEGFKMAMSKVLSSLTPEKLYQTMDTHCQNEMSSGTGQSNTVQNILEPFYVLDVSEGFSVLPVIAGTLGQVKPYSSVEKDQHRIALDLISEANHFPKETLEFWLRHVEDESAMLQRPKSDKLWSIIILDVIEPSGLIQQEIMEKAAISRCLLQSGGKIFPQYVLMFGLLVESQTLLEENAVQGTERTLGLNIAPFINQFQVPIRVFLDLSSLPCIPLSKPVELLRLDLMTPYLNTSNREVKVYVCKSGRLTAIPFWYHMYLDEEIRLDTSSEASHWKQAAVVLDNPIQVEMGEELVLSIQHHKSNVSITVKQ
Procedure: Accordingly, all the enzymatic inhibition data were obtained by performing the assays in these optimized conditions.
The reaction was incubated for 60 min. Afterward, in each well, 5 μL of a 1:100 dilution of Primary antibody 28 (BPS BioScience, #52140Z3) in Detection buffer (BPS BioScience) and 5 μL of anti-Rabbit acceptor beads (PerkinElmer, #AL104C) were added to obtain a final concentration of 20 μg/mL.
For each incubation step, the OptiPlate was sealed with a protective foil to prevent evaporation and contamination. Donor and Acceptor beads were added to the mixture in subdued light.
The 100% activity (positive control) was reached using vehicle (DMSO), while 0% activity (negative control) was obtained without the protein. Data were analyzed by using Excel and Prism software. Values obtained for each compound are mean ± SD determined for three separate experiments.

[2] = target: T2, PRMT3 (Homo sapiens, UniProt O60678); experiment: HotSpot radioisotope-based filter assay, PRMT3; details: Figure 2; from IC50 values of ref 31
T2 construct: PRMT3 (residues 2–531, C-terminus); with an N-terminal His-tag; His (N); purchased Reaction Biology Corporation
T2 sequence (O60678 2-531): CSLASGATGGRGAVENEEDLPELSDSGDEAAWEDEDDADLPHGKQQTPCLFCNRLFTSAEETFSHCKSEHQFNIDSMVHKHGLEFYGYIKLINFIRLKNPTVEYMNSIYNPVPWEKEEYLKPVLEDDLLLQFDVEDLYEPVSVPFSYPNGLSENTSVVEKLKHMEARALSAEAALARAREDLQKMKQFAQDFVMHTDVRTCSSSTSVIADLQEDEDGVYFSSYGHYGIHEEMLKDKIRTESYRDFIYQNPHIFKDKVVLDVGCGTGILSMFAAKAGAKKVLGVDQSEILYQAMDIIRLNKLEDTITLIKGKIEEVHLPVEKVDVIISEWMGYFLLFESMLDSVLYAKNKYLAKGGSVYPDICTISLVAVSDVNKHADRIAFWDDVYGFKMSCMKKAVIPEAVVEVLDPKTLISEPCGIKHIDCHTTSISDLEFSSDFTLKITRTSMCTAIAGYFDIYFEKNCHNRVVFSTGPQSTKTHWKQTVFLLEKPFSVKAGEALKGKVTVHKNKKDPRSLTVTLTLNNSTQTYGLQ
Procedure: (§1) Then, ^3H-SAM (final concentration of 1 μM) was delivered into the reaction mixture to initiate the reaction. After incubation for 60 min at 30 °C, the reaction mixture was delivered to filter-paper for detection (as assessed by scintillation). Data were analyzed using Excel and GraphPad Prism 6.0 software (GraphPad Software Inc., San Diego, CA) for IC50 curve fits using sigmoidal dose vs response - variable slope (four parameters) equations.

[3] = target: T3, PRMT4 (Homo sapiens, UniProt Q86X55); experiment: HotSpot radioisotope-based filter assay, PRMT4; details: Figure 2; from IC50 values of ref 31
T3 construct: PRMT4 (residues 2–608, C-terminus); with an N-terminal GST-tag; GST (N); purchased Reaction Biology Corporation
T3 sequence (Q86X55 2-608): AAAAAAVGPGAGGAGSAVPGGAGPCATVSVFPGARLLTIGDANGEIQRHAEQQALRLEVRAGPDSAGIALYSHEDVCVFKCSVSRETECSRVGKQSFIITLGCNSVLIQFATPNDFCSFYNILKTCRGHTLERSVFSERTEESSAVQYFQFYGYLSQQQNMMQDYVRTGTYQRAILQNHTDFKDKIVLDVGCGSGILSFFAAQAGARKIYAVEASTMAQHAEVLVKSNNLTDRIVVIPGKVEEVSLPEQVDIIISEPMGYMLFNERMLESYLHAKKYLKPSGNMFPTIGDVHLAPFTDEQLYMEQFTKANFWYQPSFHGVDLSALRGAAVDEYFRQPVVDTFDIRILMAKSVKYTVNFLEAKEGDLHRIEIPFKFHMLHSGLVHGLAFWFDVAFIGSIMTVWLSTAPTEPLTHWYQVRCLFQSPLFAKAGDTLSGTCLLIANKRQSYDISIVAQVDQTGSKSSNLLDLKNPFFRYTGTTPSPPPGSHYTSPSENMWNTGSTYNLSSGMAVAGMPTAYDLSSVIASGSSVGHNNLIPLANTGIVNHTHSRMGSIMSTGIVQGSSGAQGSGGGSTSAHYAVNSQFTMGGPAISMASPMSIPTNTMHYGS
Procedure: as §1

[4] = target: T4, PRMT1 (Homo sapiens, UniProt Q99873); experiment: HotSpot radioisotope-based filter assay, PRMT1; details: Figure 2; from IC50 values of ref 31
T4 construct: PRMT1 (residues 2–371, C-terminus); with an N-terminal GST-tag; GST (N); purchased Reaction Biology Corporation
T4 sequence (Q99873 2-371): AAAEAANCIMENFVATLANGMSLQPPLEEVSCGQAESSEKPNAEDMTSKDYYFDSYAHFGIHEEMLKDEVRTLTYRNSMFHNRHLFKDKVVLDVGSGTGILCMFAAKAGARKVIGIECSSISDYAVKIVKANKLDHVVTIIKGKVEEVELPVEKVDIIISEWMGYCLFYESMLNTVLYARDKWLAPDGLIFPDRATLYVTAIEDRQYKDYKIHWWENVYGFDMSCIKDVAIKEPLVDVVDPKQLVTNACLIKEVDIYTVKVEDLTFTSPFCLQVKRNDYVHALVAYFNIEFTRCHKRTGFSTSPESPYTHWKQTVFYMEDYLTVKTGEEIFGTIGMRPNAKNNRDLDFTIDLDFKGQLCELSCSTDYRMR
Procedure: as §1

[5] = target: T5, PRMT8 (Homo sapiens, UniProt Q9NR22); experiment: HotSpot radioisotope-based filter assay, PRMT8; details: Figure 2; from IC50 values of ref 31
T5 construct: (residues 61–394, C-terminus); with C- and N-terminal His-tags; His (N); His (C); purchased Reaction Biology Corporation
T5 sequence (Q9NR22 61-394): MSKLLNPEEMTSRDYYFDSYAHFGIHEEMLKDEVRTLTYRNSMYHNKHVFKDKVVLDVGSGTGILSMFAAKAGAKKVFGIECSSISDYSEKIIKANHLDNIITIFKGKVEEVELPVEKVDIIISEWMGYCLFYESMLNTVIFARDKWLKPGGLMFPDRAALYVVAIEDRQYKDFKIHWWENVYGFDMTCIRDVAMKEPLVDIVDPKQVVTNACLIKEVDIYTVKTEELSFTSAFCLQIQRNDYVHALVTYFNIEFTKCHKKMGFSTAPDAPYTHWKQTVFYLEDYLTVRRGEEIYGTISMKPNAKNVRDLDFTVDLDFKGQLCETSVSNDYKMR
Procedure: as §1

[6] = target: T6, PRMT5/MEP50 complex (Homo sapiens, UniProt O14744); experiment: HotSpot radioisotope-based filter assay, PRMT5; details: Figure 2; from IC50 values of ref 31
T6 construct: residues PRMT5 2–637, C-terminus, and MEP50 2–342, C-terminus; FLAG (N); purchased Reaction Biology Corporation
T6 sequence (O14744 2-637): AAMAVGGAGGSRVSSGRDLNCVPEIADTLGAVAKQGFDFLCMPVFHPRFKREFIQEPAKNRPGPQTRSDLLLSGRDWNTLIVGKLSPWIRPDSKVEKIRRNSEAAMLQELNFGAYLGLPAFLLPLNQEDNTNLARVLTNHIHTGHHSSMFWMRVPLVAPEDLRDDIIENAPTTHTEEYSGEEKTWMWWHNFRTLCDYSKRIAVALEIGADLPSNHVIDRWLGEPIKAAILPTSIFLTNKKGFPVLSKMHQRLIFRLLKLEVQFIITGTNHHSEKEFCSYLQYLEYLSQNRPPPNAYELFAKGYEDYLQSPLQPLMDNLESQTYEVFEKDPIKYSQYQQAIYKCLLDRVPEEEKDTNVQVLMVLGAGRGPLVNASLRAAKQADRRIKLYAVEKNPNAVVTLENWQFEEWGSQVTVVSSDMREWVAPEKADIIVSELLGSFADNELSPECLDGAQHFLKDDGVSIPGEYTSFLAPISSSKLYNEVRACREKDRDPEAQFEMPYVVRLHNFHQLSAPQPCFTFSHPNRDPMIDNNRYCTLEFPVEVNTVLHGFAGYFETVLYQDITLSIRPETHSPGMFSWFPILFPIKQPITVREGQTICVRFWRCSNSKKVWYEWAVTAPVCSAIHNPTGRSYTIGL
T6 sequence (Q9BQA1 2-342 partner limits assumed): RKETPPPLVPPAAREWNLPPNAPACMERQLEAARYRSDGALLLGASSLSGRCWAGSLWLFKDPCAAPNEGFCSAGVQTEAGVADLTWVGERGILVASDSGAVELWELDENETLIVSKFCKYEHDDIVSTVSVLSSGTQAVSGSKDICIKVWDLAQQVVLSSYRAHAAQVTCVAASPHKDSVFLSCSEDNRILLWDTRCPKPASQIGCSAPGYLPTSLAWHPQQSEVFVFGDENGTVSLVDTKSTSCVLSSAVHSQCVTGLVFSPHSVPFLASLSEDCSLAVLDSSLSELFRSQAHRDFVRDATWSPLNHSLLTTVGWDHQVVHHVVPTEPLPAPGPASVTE
Procedure: as §1

[7] = target: T7, PRMT6 (Homo sapiens, UniProt Q96LA8); experiment: HotSpot radioisotope-based filter assay, PRMT6; details: Figure 2; from IC50 values of ref 31
T7 construct: PRMT6 (residues 2–375, C-terminus); with an N-terminal GST-tag; GST (N); purchased Reaction Biology Corporation
T7 sequence (Q96LA8 2-375): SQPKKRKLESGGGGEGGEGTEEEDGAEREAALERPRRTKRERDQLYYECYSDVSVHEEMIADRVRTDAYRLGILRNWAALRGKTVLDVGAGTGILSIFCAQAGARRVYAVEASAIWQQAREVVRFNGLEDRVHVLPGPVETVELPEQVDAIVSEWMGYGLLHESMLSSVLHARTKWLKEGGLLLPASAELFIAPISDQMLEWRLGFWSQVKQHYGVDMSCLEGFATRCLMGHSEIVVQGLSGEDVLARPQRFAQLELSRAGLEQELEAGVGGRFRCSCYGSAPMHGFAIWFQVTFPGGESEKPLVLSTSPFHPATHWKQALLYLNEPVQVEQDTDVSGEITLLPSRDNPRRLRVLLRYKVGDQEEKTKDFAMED
Procedure: as §1

Compound	PRMT9 IC50 [1]	selectivity index for PRMT7 over PRMT3 [2] [fold]	selectivity index for PRMT7 over PRMT4 [3] [fold]	selectivity index for PRMT7 over PRMT1 [4] [fold]	IC50 [1] [nM]	selectivity index for PRMT7 over PRMT8 [5] [fold]	selectivity index for PRMT7 over PRMT5 [6] [fold]	selectivity index for PRMT7 over PRMT6 [7] [fold]	PRMT9 inhibition (in words) [1]
COC(=O)c1cc(O)c2cc(NC(=O)NCCCCNC(=N)NCC[C@H]3O[C@@H](n4cnc5c(N)ncnc54)[C@H](O)[C@@H]3O)ccc2c1 [1f]	–	46	0.04	22	1200	27	0.51	100	–
COC(=O)c1cc(O)c2cc(NC(=O)NCCCCCCNC(=N)NC[C@H]3O[C@@H](n4cnc5c(N)ncnc54)[C@H](O)[C@@H]3O)ccc2c1 [1d]	–	–	–	–	1020	–	–	–	–
COC(=O)c1cc(O)c2cc(NC(=O)NCCCCNC(=N)NCCC[C@H]3O[C@@H](n4cnc5c(N)ncnc54)[C@H](O)[C@@H]3O)ccc2c1 [1g]	–	3	0.002	0.38	> 10000	0.3	0.17	0.93	–
COC(=O)c1cc(O)c2cc(NC(=O)NCCCCCCCNC(=N)NC[C@H]3O[C@@H](n4cnc5c(N)ncnc54)[C@H](O)[C@@H]3O)ccc2c1 [1e]	–	20	0.28	4	1300	9	5	56	–

More lines, main results first:

PRMT9 IC50 [1]	selectivity index for PRMT7 over PRMT3 [2] [fold]	selectivity index for PRMT7 over PRMT4 [3] [fold]	selectivity index for PRMT7 over PRMT1 [4] [fold]	IC50 [1] [nM]	selectivity index for PRMT7 over PRMT8 [5] [fold]	selectivity index for PRMT7 over PRMT5 [6] [fold]	selectivity index for PRMT7 over PRMT6 [7] [fold]	Compound	PRMT9 inhibition (in words) [1]
no inhibition	–	–	–	–	–	–	–	COC(=O)c1c[nH]c2ccc(NC(=O)CC(=O)Nc3ccc4[nH]cc(C(=O)OC)c4c3)cc12 [EML147]	no PRMT9 inhibition; also recorded: no activity
no inhibition	–	–	–	–	–	–	–	COC(=O)c1cc(O)c2cc(NC(=O)Nc3ccc4cc(C(=O)OC)cc(O)c4c3)ccc2c1 [EML107]	no PRMT9 inhibition; also recorded: no activity
no inhibition	–	–	–	–	–	–	–	O=C(Nc1ccc2cc(C(=O)O)cc(O)c2c1)Nc1ccc2cc(C(=O)O)cc(O)c2c1 [EML108]	no PRMT9 inhibition; also recorded: no activity
no inhibition	–	–	–	–	–	–	–	O=C(CC(=O)Nc1ccc2[nH]cc(C(=O)O)c2c1)Nc1ccc2[nH]cc(C(=O)O)c2c1 [EML148]	no PRMT9 inhibition; also recorded: no activity
no inhibition	–	–	–	–	–	–	–	CCOC(=O)c1cc2cc(NC(=O)CNC(=O)Nc3ccc([N+](=O)[O-])cc3)ccc2[nH]1 [EML105]	no PRMT9 inhibition; also recorded: no activity
no inhibition	–	–	–	–	–	–	–	O=C(Nc1ccc2[nH]cc(C(=O)O)c2c1)Nc1ccc2[nH]cc(C(=O)O)c2c1 [EML145]	no PRMT9 inhibition; also recorded: no activity
